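Interpolation was linear, between the two tested concentrations surrounding the appropriate level; five concentrations were tested over 48 hours in 96-well plates. Abbreviation: GI50, concentration required for 50% inhibition of growth.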 The source made the active and inactive calls. Cut-off read from the data, not from the text of the source: active = GI50 up to about 1.1 µM and inactive = higher.
Assays:
Assay in all cases: NCI-60 cell line screen, 48 h
SF-295 = system: SF-295
IGROV-1 = system: IGROV-1
OVCAR-3 = system: OVCAR-3
SN12C = system: SN12C
SF-268 = system: SF-268
SNB-75 = system: SNB-75
DU-145 = system: DU-145
Malme-3M = system: Malme-3M
SNB-19 = system: SNB-19
HCT-116 = system: HCT-116
A549 = system: A549
OVCAR-8 = system: OVCAR-8
HCC 2998 = system: HCC 2998
SR = system: SR
MOLT-4 = system: MOLT-4
MCF7 = system: MCF7
NCI-H460 = system: NCI-H460
UO-31 = system: UO-31
HL-60 = system: HL-60
MDA-MB-231 = system: MDA-MB-231
RPMI-8226 = system: RPMI-8226
CCRF-CEM = system: CCRF-CEM
T47D = system: T47D
U-251 = system: U-251
M14 = system: M14
PC-3 = system: PC-3
SF-539 = system: SF-539
SK-MEL-5 = system: SK-MEL-5
HT-29 = system: HT-29
UACC-62 = system: UACC-62
Hs-578T = system: Hs-578T
HOP-62 = system: HOP-62
COLO 205 = system: COLO 205
LOX IMVI = system: LOX IMVI
HOP-92 = system: HOP-92
SW-620 = system: SW-620
786-0 = system: 786-0
BT-549 = system: BT-549
MDA-N = system: MDA-N
SK-OV-3 = system: SK-OV-3
KM12 = system: KM12
A498 = system: A498
OVCAR-5 = system: OVCAR-5
NCI/ADR-RES = system: NCI/ADR-RES
NCI-H23 = system: NCI-H23
EKVX = system: EKVX
NCI-H522 = system: NCI-H522
HCT-15 = system: HCT-15
OVCAR-4 = system: OVCAR-4
CAKI-1 = system: CAKI-1
SK-MEL-28 = system: SK-MEL-28
MDA-MB-435 = system: MDA-MB-435
K562 = system: K562
ACHN = system: ACHN
TK-10 = system: TK-10
NCI-H226 = system: NCI-H226
RXF 393 = system: RXF 393
UACC-257 = system: UACC-257
SK-MEL-2 = system: SK-MEL-2

For `COc1ccc(/C=c2\s/c(=C3/SC(=S)N(c4ccccc4)C3=O)n(-c3ccccc3)c2=O)cc1`, the GI50 (SF-295) was 35 µM (inactive), the GI50 (IGROV-1) was 19.7 µM (inactive) and the GI50 (OVCAR-3) was > 100 µM (inactive). For the same molecule, the GI50 (SN12C) was > 100 µM (inactive), the GI50 (SF-268) was 0.895 µM (active) and the GI50 (SNB-75) was 4.61 µM (inactive). For the same molecule, the GI50 (DU-145) was > 100 µM (inactive), the GI50 (Malme-3M) was > 100 µM (inactive) and the GI50 (SNB-19) was 35.4 µM (inactive). The GI50 (HCT-116) was > 100 µM (inactive), the GI50 (A549) was > 100 µM (inactive) and the GI50 (OVCAR-8) was > 100 µM (inactive). For the same molecule, the GI50 (HCC 2998) was > 100 µM (inactive), the GI50 (SR) was 15.3 µM (inactive) and the GI50 (MOLT-4) was 29.8 µM (inactive). The GI50 (MCF7) was 0.264 µM (active), the GI50 (NCI-H460) was 12.8 µM (inactive) and the GI50 (UO-31) was 73.1 µM (inactive). The GI50 (HL-60) was > 100 µM (inactive), the GI50 (MDA-MB-231) was 49.3 µM (inactive) and the GI50 (RPMI-8226) was > 100 µM (inactive). For the same molecule, the GI50 (CCRF-CEM) was 24 µM (inactive), the GI50 (T47D) was > 100 µM (inactive) and the GI50 (U-251) was 19.6 µM (inactive). For the same molecule, the GI50 (M14) was > 100 µM (inactive), the GI50 (PC-3) was > 100 µM (inactive) and the GI50 (SF-539) was 32.8 µM (inactive). The GI50 (SK-MEL-5) was > 100 µM (inactive), the GI50 (HT-29) was > 100 µM (inactive) and the GI50 (UACC-62) was 61 µM (inactive). The GI50 (Hs-578T) was 18.9 µM (inactive), the GI50 (HOP-62) was 21.6 µM (inactive) and the GI50 (COLO 205) was > 100 µM (inactive). The GI50 (LOX IMVI) was > 100 µM (inactive), the GI50 (HOP-92) was 21.6 µM (inactive) and the GI50 (SW-620) was > 100 µM (inactive). For the same molecule, the GI50 (786-0) was 43.6 µM (inactive), the GI50 (BT-549) was 43.2 µM (inactive) and the GI50 (MDA-N) was > 100 µM (inactive). The GI50 (SK-OV-3) was 12.1 µM (inactive), the GI50 (KM12) was > 100 µM (inactive) and the GI50 (A498) was 36.6 µM (inactive). The GI50 (OVCAR-5) was > 100 µM (inactive), the GI50 (NCI/ADR-RES) was > 100 µM (inactive) and the GI50 (NCI-H23) was 26.9 µM (inactive). The GI50 (EKVX) was > 100 µM (inactive), the GI50 (NCI-H522) was > 100 µM (inactive) and the GI50 (HCT-15) was greater than 100 µM. For the same molecule, the GI50 (OVCAR-4) was > 100 µM (inactive), the GI50 (CAKI-1) was 32.9 µM (inactive) and the GI50 (SK-MEL-28) was > 100 µM (inactive). For the same molecule, the GI50 (MDA-MB-435) was > 100 µM (inactive), the GI50 (K562) was > 100 µM (inactive) and the GI50 (ACHN) was 13.6 µM (inactive). For the same molecule, the GI50 (TK-10) was 21.5 µM (inactive).

With `C/C(=C\c1ccccc1)C(=O)NCc1ccc(C(=O)NCCc2ccccc2)cc1` the GI50 (SF-295) was 27.7 µM (inactive), the GI50 (IGROV-1) was 35.8 µM (inactive) and the GI50 (OVCAR-3) was > 100 µM (inactive). For the same molecule, the GI50 (SN12C) was 21.2 µM (inactive), the GI50 (SF-268) was 4.37 µM (inactive) and the GI50 (SNB-75) was 3.95 µM (inactive). The GI50 (DU-145) was > 100 µM (inactive), the GI50 (Malme-3M) was > 100 µM (inactive) and the GI50 (SNB-19) was 9.42 µM (inactive). For the same molecule, the GI50 (HCT-116) was 43.4 µM (inactive), the GI50 (A549) was > 100 µM (inactive) and the GI50 (OVCAR-8) was 3.47 µM (inactive). The GI50 (HCC 2998) was > 100 µM (inactive), the GI50 (SR) was > 100 µM (inactive) and the GI50 (MOLT-4) was > 100 µM (inactive). For the same molecule, the GI50 (MCF7) was > 100 µM (inactive), the GI50 (NCI-H460) was > 100 µM (inactive) and the GI50 (NCI-H226) was 17.9 µM (inactive). For the same molecule, the GI50 (UO-31) was 22 µM (inactive), the GI50 (MDA-MB-231) was > 43.2 µM (inactive) and the GI50 (RPMI-8226) was > 100 µM (inactive). For the same molecule, the GI50 (CCRF-CEM) was > 100 µM (inactive), the GI50 (T47D) was > 89.7 µM (inactive) and the GI50 (U-251) was > 51.8 µM (inactive). For the same molecule, the GI50 (M14) was > 100 µM (inactive), the GI50 (PC-3) was > 100 µM (inactive) and the GI50 (SF-539) was 10.1 µM (inactive). The GI50 (SK-MEL-5) was > 100 µM (inactive), the GI50 (HT-29) was 2.67 µM (inactive) and the GI50 (UACC-62) was > 100 µM (inactive). For the same molecule, the GI50 (RXF 393) was 13.8 µM (inactive), the GI50 (Hs-578T) was 7.16 µM (inactive) and the GI50 (HOP-62) was 3 µM (inactive). For the same molecule, the GI50 (COLO 205) was > 100 µM (inactive), the GI50 (LOX IMVI) was > 100 µM (inactive) and the GI50 (HOP-92) was 18.4 µM (inactive). The GI50 (SW-620) was > 100 µM (inactive), the GI50 (786-0) was 20.6 µM (inactive) and the GI50 (BT-549) was 28.9 µM (inactive). For the same molecule, the GI50 (MDA-N) was > 100 µM (inactive), the GI50 (SK-OV-3) was 12.2 µM (inactive) and the GI50 (KM12) was > 100 µM (inactive). The GI50 (A498) was > 66.5 µM (inactive), the GI50 (OVCAR-5) was > 96.2 µM (inactive) and the GI50 (NCI/ADR-RES) was > 39.9 µM (inactive). For the same molecule, the GI50 (NCI-H23) was > 52.4 µM (inactive), the GI50 (EKVX) was 22.5 µM (inactive) and the GI50 (UACC-257) was > 100 µM (inactive). For the same molecule, the GI50 (NCI-H522) was > 100 µM (inactive), the GI50 (HCT-15) was greater than 100 µM and the GI50 (SK-MEL-2) was 20.9 µM (inactive). For the same molecule, the GI50 (OVCAR-4) was > 100 µM (inactive), the GI50 (CAKI-1) was > 93.3 µM (inactive) and the GI50 (SK-MEL-28) was > 100 µM (inactive). For the same molecule, the GI50 (MDA-MB-435) was > 100 µM (inactive), the GI50 (K562) was > 100 µM (inactive) and the GI50 (ACHN) was > 94.6 µM (inactive). The GI50 (TK-10) was 41.9 µM (inactive).
